Data reported in patent publication US6358885B1, “Substituted phenylheterocyclic herbicides” (Mississippi State University, priority 1992, dated 2002).

Assays:
Experiment in all cases: Test G preemergence/postemergence greenhouse plant response rating 0 to 100
annual bluegrass = type: in vivo, Poa annua; settings: 0 to 100 scale
Excerpt: (§1) Seeds, rhizomes, or plant parts of alfalfa (Medicago ativa), annual bluegrass (Poa annua), bermudagrass (Cynodon dactylon), broadleaf signalgrass (Brachiaria plantaginea), common purslane (Portulaca oleracea), common ragweed (Ambrosia elatior), […] (Paspalum dilatatum), goosegrass (Eleusine indica), guineagrass (Panicum maximum), […] exaltata), johnsongrass (Sorghum halepense), large crabgrass (Digitaria sanguinalis), peanut (Arachis hypoagaea), pitted morningglory (Ipomoea lacunosa), purple nutsedge (Cyperus rotundus), sandbur (Cenchrus echinatus), smooth crabgrass (Digitaria ischaemum) and yellow nutsedge (Cyperus esculentus) were planted into greenhouse pots containing greenhouse planting medium. Each pot contained only one plant species. The test compound was dissolved in a non-phytotoxic solvent and applied preemergence and/or postemergence to the plants. Preemergence applications were made within one day of planting the seeds or plant parts. Postemergence applications were applied when the plants were in the two to four leaf stage (three to twenty cm). Test chemicals were dissolved in a non-phytotoxic solvent and applied preemergence and postemergence to the plants. Untreated control plants and treated plants were placed in the greenhouse and visually evaluated for injury at 13 to 21 days after herbicide application. […] A dash (-) response indicates no test result.

bermudagrass = type: in vivo, Cynodon dactylon; settings: 0 to 100 scale
Excerpt: as §1

broadleaf signalgrass = type: in vivo, Brachiaria plantaginea; settings: 0 to 100 scale
Excerpt: as §1

common purslane = type: in vivo, Portulaca oleracea; settings: 0 to 100 scale
Excerpt: as §1

common ragweed = type: in vivo, Ambrosia elatior; settings: 0 to 100 scale
Excerpt: as §1

dallisgrass = type: in vivo, Paspalum dilatatum; settings: 0 to 100 scale
Excerpt: as §1

goosegrass = type: in vivo, Eleusine indica; settings: 0 to 100 scale
Excerpt: as §1

guineagrass = type: in vivo, Panicum maximum; settings: 0 to 100 scale
Excerpt: as §1

itchgrass = type: in vivo, Rottboellia exaltata; settings: 0 to 100 scale
Excerpt: as §1

johnsongrass = type: in vivo, Sorghum halepense; settings: 0 to 100 scale
Excerpt: as §1

large crabgrass = type: in vivo, Digitaria sanguinalis; settings: 0 to 100 scale
Excerpt: as §1

peanut = type: in vivo, Arachis hypoagaea; settings: 0 to 100 scale
Excerpt: as §1

pitted morningglory = type: in vivo, Ipomoea lacunosa; settings: 0 to 100 scale
Excerpt: as §1

sandbur = type: in vivo, Cenchrus echinatus; settings: 0 to 100 scale
Excerpt: as §1

smooth crabgrass = type: in vivo, Digitaria ischaemum; settings: 0 to 100 scale
Excerpt: as §1

yellow nutsedge = type: in vivo, Cyperus esculentus; settings: Rate 125 g/ha, 0 to 100 scale
Excerpt: as §1

SMILES: CC(C)N1C(=O)COc2cc(F)c(-c3nn4c(c3Cl)CCCC4)cc21 [Compound 31]
- Plant response rating, Ann Bluegrass (annual bluegrass; POSTEMERGENCE, Rate 125 g/ha): 0
- Plant response rating, Ann Bluegrass (annual bluegrass; POSTEMERGENCE, Rate 250 g/ha): 0
- Plant response rating, Ann Bluegrass (annual bluegrass; PREEMERGENCE, Rate 125 g/ha): 0
- Plant response rating, Ann Bluegrass (annual bluegrass; PREEMERGENCE, Rate 250 g/ha): 0
- Plant response rating, Bermudagrass (bermudagrass; POSTEMERGENCE, Rate 125 g/ha): 0
- Plant response rating, Bermudagrass (bermudagrass; POSTEMERGENCE, Rate 250 g/ha): 0
- Plant response rating, Bermudagrass (bermudagrass; PREEMERGENCE, Rate 125 g/ha): 0
- Plant response rating, Bermudagrass (bermudagrass; PREEMERGENCE, Rate 250 g/ha): 0
- Plant response rating, Brdlf Sgnlgrass (broadleaf signalgrass; POSTEMERGENCE, Rate 125 g/ha): 0
- Plant response rating, Brdlf Sgnlgrass (broadleaf signalgrass; POSTEMERGENCE, Rate 250 g/ha): 0
- Plant response rating, Brdlf Sgnlgrass (broadleaf signalgrass; PREEMERGENCE, Rate 125 g/ha): 0
- Plant response rating, Brdlf Sgnlgrass (broadleaf signalgrass; PREEMERGENCE, Rate 250 g/ha): 0
- Plant response rating, Cmn Purslane (common purslane; POSTEMERGENCE, Rate 125 g/ha): 100
- Plant response rating, Cmn Purslane (common purslane; POSTEMERGENCE, Rate 250 g/ha): 80
- Plant response rating, Cmn Purslane (common purslane; PREEMERGENCE, Rate 125 g/ha): 0
- Plant response rating, Cmn Purslane (common purslane; PREEMERGENCE, Rate 250 g/ha): 100
- Plant response rating, Cmn Ragweed (common ragweed; POSTEMERGENCE, Rate 125 g/ha): 100
- Plant response rating, Cmn Ragweed (common ragweed; POSTEMERGENCE, Rate 250 g/ha): 100
- Plant response rating, Cmn Ragweed (common ragweed; PREEMERGENCE, Rate 125 g/ha): 0
- Plant response rating, Cmn Ragweed (common ragweed; PREEMERGENCE, Rate 250 g/ha): 70
- Plant response rating, Dallisgrass (dallisgrass; POSTEMERGENCE, Rate 125 g/ha): 0
- Plant response rating, Dallisgrass (dallisgrass; POSTEMERGENCE, Rate 250 g/ha): 0
- Plant response rating, Dallisgrass (dallisgrass; PREEMERGENCE, Rate 125 g/ha): 0
- Plant response rating, Dallisgrass (dallisgrass; PREEMERGENCE, Rate 250 g/ha): 0
- Plant response rating, Goosegrass (goosegrass; POSTEMERGENCE, Rate 125 g/ha): 0
- Plant response rating, Goosegrass (goosegrass; POSTEMERGENCE, Rate 250 g/ha): 0
- Plant response rating, Goosegrass (goosegrass; PREEMERGENCE, Rate 125 g/ha): 0
- Plant response rating, Goosegrass (goosegrass; PREEMERGENCE, Rate 250 g/ha): 0
- Plant response rating, Guineagrass (guineagrass; POSTEMERGENCE, Rate 125 g/ha): 0
- Plant response rating, Guineagrass (guineagrass; POSTEMERGENCE, Rate 250 g/ha): 0
- Plant response rating, Guineagrass (guineagrass; PREEMERGENCE, Rate 125 g/ha): 0
- Plant response rating, Guineagrass (guineagrass; PREEMERGENCE, Rate 250 g/ha): 100
- Plant response rating, Itchgrass (itchgrass; POSTEMERGENCE, Rate 125 g/ha): 0
- Plant response rating, Itchgrass (itchgrass; POSTEMERGENCE, Rate 250 g/ha): 20
- Plant response rating, Itchgrass (itchgrass; PREEMERGENCE, Rate 125 g/ha): 0
- Plant response rating, Itchgrass (itchgrass; PREEMERGENCE, Rate 250 g/ha): 70
- Plant response rating, Johnsongrass (johnsongrass; POSTEMERGENCE, Rate 125 g/ha): 0
- Plant response rating, Johnsongrass (johnsongrass; POSTEMERGENCE, Rate 250 g/ha): 0
- Plant response rating, Johnsongrass (johnsongrass; PREEMERGENCE, Rate 125 g/ha): 0
- Plant response rating, Johnsongrass (johnsongrass; PREEMERGENCE, Rate 250 g/ha): 0
- Plant response rating, Large Crabgrass (large crabgrass; POSTEMERGENCE, Rate 125 g/ha): 0
- Plant response rating, Large Crabgrass (large crabgrass; POSTEMERGENCE, Rate 250 g/ha): 0
- Plant response rating, Large Crabgrass (large crabgrass; PREEMERGENCE, Rate 125 g/ha): 0
- Plant response rating, Large Crabgrass (large crabgrass; PREEMERGENCE, Rate 250 g/ha): 0
- Plant response rating, Peanuts (peanut; POSTEMERGENCE, Rate 125 g/ha): 0
- Plant response rating, Peanuts (peanut; POSTEMERGENCE, Rate 250 g/ha): 0
- Plant response rating, Peanuts (peanut; PREEMERGENCE, Rate 125 g/ha): 0
- Plant response rating, Peanuts (peanut; PREEMERGENCE, Rate 250 g/ha): 0
- Plant response rating, Pit Morninglory (pitted morningglory; POSTEMERGENCE, Rate 125 g/ha): 50
- Plant response rating, Pit Morninglory (pitted morningglory; POSTEMERGENCE, Rate 250 g/ha): 50
- Plant response rating, Pit Morninglory (pitted morningglory; PREEMERGENCE, Rate 125 g/ha): 0
- Plant response rating, Pit Morninglory (pitted morningglory; PREEMERGENCE, Rate 250 g/ha): 0
- Plant response rating, S. Sandbur (sandbur; POSTEMERGENCE, Rate 125 g/ha): 0
- Plant response rating, S. Sandbur (sandbur; POSTEMERGENCE, Rate 250 g/ha): 0
- Plant response rating, S. Sandbur (sandbur; PREEMERGENCE, Rate 125 g/ha): 0
- Plant response rating, S. Sandbur (sandbur; PREEMERGENCE, Rate 250 g/ha): 0
- Plant response rating, Smooth Crabgras (smooth crabgrass; POSTEMERGENCE, Rate 125 g/ha): 0
- Plant response rating, Smooth Crabgras (smooth crabgrass; POSTEMERGENCE, Rate 250 g/ha): 0
- Plant response rating, Smooth Crabgras (smooth crabgrass; PREEMERGENCE, Rate 125 g/ha): 0
- Plant response rating, Smooth Crabgras (smooth crabgrass; PREEMERGENCE, Rate 250 g/ha): 0
- Plant response rating, Yellow Nutsedge (yellow nutsedge; POSTEMERGENCE): 0
- Plant response rating, Yellow Nutsedge (yellow nutsedge; PREEMERGENCE): 0
